Experimental data taken from ChEMBL document CHEMBL1201862, “PubChem BioAssay data set” (2004).
Active and inactive are the calls of the source.

Columns and labels:
[1] = target: 1-phosphatidylinositol 4,5-bisphosphate phosphodiesterase gamma-1 (Homo sapiens, UniProt P19174); assay: Counterscreen for inhibitors of phospholipase C isozymes (PLC-B3): Fluorescence-based biochemical high throughput dose response assay to identify inhibitors of phospholipase C isozymes (PLC-gamma1).
[2] = target: 1-phosphatidylinositol 4,5-bisphosphate phosphodiesterase beta-3 (Homo sapiens, UniProt Q01970); assay: Fluorescence-based biochemical high throughput dose response assay to identify inhibitors of phospholipase C isozymes (PLC-B3).
[3] = A549 cell cytotoxicity, dose response, cytotoxicity control, plate reader, cherry-pick, antagonist series (AID 743412); type: functional, cell-based
[4] = inhibition of bursicon-driven LGR2 cAMP signaling – cell-based, HEK293, CRE-luciferase reporter, cherry pick, dose response (AID 743342); type: functional
Protein Wnt-3a = Protein Wnt-3a (Mus musculus, UniProt P27467); assay: SAR analysis of small molecule antagonists of Gli-SUFU in a Wnt3a luminescent reporter assay.; type: functional
[5] = rescue of ΔF508 CFTR function, airway epithelium – human bronchial epithelial cells, plate reader, cherry-pick, two tests, dose response (AID 743267); type: functional, cell-based
[6] = activation of miR-122 Renilla sensor silencing – cell-based, Huh7 psiCHECK-miR122, Renilla luciferase, cherry-picked, dose response (AID 651956); type: functional;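 note: huh7 hepatoma cells stably carrying a psiCHECK-2 miR-122 sensor plasmid; renilla luciferase signal reporting endogenous miR-122 activity after 48 h compound exposure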
[7] = viability loss in HepG2 hepatoma cells – cell-based, cherry-picks, set 5, cytotoxicity control, dose response (AID 1053118); type: functional
[8] = general mammalian cell viability loss – inhibitor set, cherry-pick, set 2, cytotoxicity control for miR-122 modulator project, dose response (AID 720697); type: functional, cell-based
[9] = viability loss in HEK293 kidney cells – cell-based, cherry-picks, set 5, cytotoxicity control, dose response (AID 1053117); type: functional
[10] = blockers of FN fibrillogenesis by fibroblasts – AH1F cells, Alexa488-FN fluorescence, cherry-picks, dose response (AID 1035475); type: functional, cell-based
[11] = P. falciparum Dd2 growth inhibitors, dose response, SYBR Green, cherry-picked samples (AID 1159567); type: functional, cell-based
[12] = toxicity to human hepatoma HepG2 cells – cell-based, cherry-picked samples, cytotoxicity control, dose response (AID 1159577); type: functional
Vero = assay: viability loss in Vero cells – cell-based, plate reader, cherry-pick samples, cytotoxicity control, dose response (AID 687020); type: functional; conditions: Chlorocebus sabaeus
[13] = reduction of Shn3 3'UTR-driven luciferase in osteoblasts – cell-based, Clone20 osteoblasts, firefly luciferase, cherry-picked, dose response (AID 624132); type: functional;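 note: firefly luciferase luminescence from reporter carrying the Shn3 3'UTR in osteoblasts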
[14] = loss of viability in HepG2 cells – cell-based, CellTiter-Glo, cherry-picked, cytotoxicity control for Shn3 inhibitor project, dose response (AID 624134); type: functional
[15] = non-specific 3'UTR reporter inhibition in Clone20-Shn3RL – cell-based, Renilla luciferase, cherry-picked, counter-screen for Shn3 inhibitor project, dose response (AID 624133); type: functional
Galanin receptor type 3 = Galanin receptor type 3 (Homo sapiens, UniProt O60755); assay: Fluorescence-based cell-based primary high throughput dose response assay to identify antagonists of the Galanin Receptor 3 (GalR3).; type: functional
cells [16] = type: functional, cell-based; conditions: HEK-CNG
[17] = target: COUP transcription factor 2 (Homo sapiens, UniProt P24468); assay: Luminescence-based cell-based high throughput dose response assay to identify inhibitors of COUP-TFII (NR2F2).; type: functional;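 note: HEK293 cells transiently cotransfected with COUP-TFII expression vector and reporter; luciferase reporter luminescence driven by COUP-TFII from the pX2-168 reporter plasmid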
[18] = rise of 2N DNA cells, HeLa – IC50, dose response (AID 1117349); type: functional, cell-based
[19] = CellTiter-Glo luminescence survival assay, SW480 colon tumor line, concentration-response curve, half-maximal inhibitory concentration (AID 1117338); type: functional
[20] = cytotoxicity toward HCT116 cells – cell-based, CellTiter-Glo luminescence, IC50, dose response (AID 1117332); type: functional; conditions: HCT-116
[21] = SNU-C1 cell viability reduction, dose response, CellTiter-Glo luminescence (AID 1117323); type: functional, cell-based
[22] = cytotoxicity toward Colo320 cells – cell-based, CellTiter-Glo luminescence, IC50, dose response (AID 1117334); type: functional; conditions: COLO 320
[23] = rise of 4N DNA cells, HeLa – IC50, dose response (AID 1117351); type: functional, cell-based
[24] = cytotoxicity toward HT-29 cells – cell-based, CellTiter-Glo luminescence, IC50, dose response (AID 1117330); type: functional
[25] = Reduced DLD-1 viability, concentration-response, CellTiter-Glo luminescence (AID 1117352); type: functional
Major prion protein = Major prion protein (Homo sapiens, UniProt P04156); type: functional, cell-based
cells [26] = assay: cells
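Throughout, for EC50: target is galanin receptor GalR3 read with a cAMP biosensor in HEK293 cells.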

**Q.** With O=C(CCNc1cc(Cl)cc(Cl)c1)c1cccs1 as the compound, how does the IC50 [1] read?
**A.** Its IC50 is > 123 µM (inactive).

**Q.** What about the IC50 [2] of the same compound?
**A.** Its IC50 is > 123 µM (inactive).

**Q.** What does the source list for C[C@H](CO)N1C[C@H](C)[C@H](CN(C)C(=O)Nc2cccc3ccccc23)OCCCC[C@H](C)Oc2ccc(NC(=O)C3CCCCC3)cc2C1=O?
**A.** AC50 [3]: 43.9 µM (active); AC50 [4]: 0.747 µM (active)

**Q.** For CN(C)c1cc(NC(=O)c2cccc(C#N)c2)ncn1, which IC50 (Protein Wnt-3a) is on record?
**A.** The IC50 was > 21.8 µM (inactive).

**Q.** Which AC50 [5] does the source give for COc1ccccc1NS(=O)(=O)c1cc(NN=C(C(C)=O)C(=O)Nc2ccc(Cl)cc2)ccc1C here?
**A.** Its AC50 is 36.6 µM (active).

**Q.** What does the source list for CO[C@H]1CN(C)C(=O)c2cc(NC(=O)Nc3ccc(Cl)c(Cl)c3)ccc2OC[C@H](C)NC[C@H]1C?
**A.** AC50 [6]: 23.2 µM (active); AC50 [7]: 18.5 µM (active); AC50 [8]: 18.1 µM (active); AC50 [9]: 26.6 µM (active); AC50 [10]: > 70 µM (inactive); AC50 [11]: 10.4 µM (active); AC50 [12]: 12.1 µM (active)

**Q.** For CC1CCOC(c2coc3ccccc3c2=O)O1 (stereo not given), which AC50 (Vero) is on record?
**A.** The AC50 was 24.2 µM (active).

**Q.** With Cc1nc2ccccc2n1Cc1ccc(Cl)cc1 [CHLORMIDAZOLE] as the compound, how does the AC50 [13] read?
**A.** Its AC50 is 1.46 µM (active).

**Q.** And the AC50 [14]?
**A.** The AC50 was 2.79 µM (active).

**Q.** And the AC50 [15]?
**A.** Its AC50 is 28.2 µM (active).

**Q.** What about the IC50 (Galanin receptor type 3) of the same compound?
**A.** The IC50 was 0.203 µM (active).

**Q.** What about the EC50 (cells [16]) of the same compound?
**A.** Its EC50 is > 29.9 µM (inactive).

**Q.** And the IC50 [17]?
**A.** The IC50 was 10.6 µM (inactive).

**Q.** What about the IC50 [18] of the same compound?
**A.** Its IC50 is > 10 µM (inactive).

**Q.** What about the IC50 [19] of the same compound?
**A.** The IC50 was 5.33 µM (inactive).

**Q.** And the IC50 [20]?
**A.** The IC50 was 1.22 µM (active).

**Q.** What about the IC50 [21] of the same compound?
**A.** The IC50 was > 20 µM (inactive).

**Q.** What about the IC50 [22] of the same compound?
**A.** Its IC50 is 15.2 µM (inactive).

**Q.** What about the IC50 [23] of the same compound?
**A.** The IC50 was > 10 µM (inactive).

**Q.** What about the IC50 [24] of the same compound?
**A.** Its IC50 is > 20 µM (inactive).

**Q.** What about the IC50 [25] of the same compound?
**A.** The IC50 was > 20 µM (inactive).

**Q.** Which IC50 (Major prion protein) does the source give for CC(=O)Nc1ccc2nc(C)c(CC=C(Cl)Cl)c(O)c2c1 here?
**A.** The IC50 was 10.2 µM (inactive).

**Q.** And the IC50 (cells [26])?
**A.** The IC50 was > 138 µM (inactive).
